Measured values taken from PMC5999115, “Anti-tumor activity of phenoxybenzamine and its inhibition of histone deacetylases” (PLoS ONE, 2018).

Tests used:
[1] = test system: NCI-H522; assay: NCI60 screen, Sulforhodamine B assay; format: cell-based, human; conditions: 10 μM phenoxybenzamine
Description: (§1) The results of these studies were included in an application for the screening of PBZ in the National Cancer Institute NCI60 screening program (https://dtp.cancer.gov/discovery_development/nci-60); they measured its effects on growth in cultures of 60 human tumors. This initial screen was conducted at only one drug concentration, 10 μM. We supplied the United States Pharmacopeial reference standard of PBZ-hydrochloride in powder form. The NCI60 standard procedure for dissolution of a synthetic molecule like PBZ involved initial dilution in 9:1 dimethyl sulfoxide (DMSO): glycerol at a concentration of 4 mM; the solution was then diluted 1:200 with complete culture medium (RPMI 1640 medium containing 5% fetal calf serum (FCS), 2 mM L-glutamine and 50 μg/ml gentamicin to give a final concentration of 20 μM; 100 μl of the drug-medium mixture was added to 100 μl of the cell cultures already in complete medium. The microtiter plates were incubated for 48 hr at 37°C, 5% CO2, 95% air, and 100% relative humidity (see S1 Appendix for further details).
(§2) The reason for the lack of activity after dissolution in DMSO has not been pursued further, but DMSO was eliminated in all subsequent assay systems.

[2] = test system: OVCAR-8; assay: NCI60 screen, Sulforhodamine B assay; format: cell-based, human; conditions: 10 μM phenoxybenzamine
Description: as §1, §2

[3] = test system: PC-3; assay: NCI60 screen, Sulforhodamine B assay; format: cell-based, human; conditions: 10 μM phenoxybenzamine
Description: as §1, §2

[4] = test system: RPMI 8226; assay: NCI60 screen, Sulforhodamine B assay; format: cell-based, human; conditions: 10 μM phenoxybenzamine
Description: as §1, §2

[5] = test system: T47D; assay: NCI60 screen, Sulforhodamine B assay; format: cell-based, human; conditions: 10 μM phenoxybenzamine
Description: as §1, §2

[6] = test system: UACC-257; assay: NCI60 screen, Sulforhodamine B assay; format: cell-based, human; conditions: 10 μM phenoxybenzamine
Description: as §1, §2

[7] = test system: LXFA NCI-H522; assay: Oncotest CellTiter-Blue cell viability assay, 72 hours; format: cell-based, human
Description: (§3) Further studies with varying drug concentrations on selected human cell lines, in most cases those studied in the NCI60 screen, were conducted by Oncotest GmbH laboratories, Freiburg, Germany; Oncotest is a division of Charles River Laboratories. The dissolution procedure for PBZ and the cell culture […] was 72 hours; anti-tumor activity was determined with the CellTiter-Blue® Cell Viability Assay, Promega, Mannheim, Germany. The 50% Inhibitory (IC50) concentrations were determined. The results are the average of duplicate assays. Paclitaxel was included as a reference compound to confirm the integrity of the assays. See S1 Appendix for further details.
(§4) “Cell lines were routinely passaged once or twice weekly and maintained in culture for up to 20 passages. Cells were grown at 37°C in a humidified atmosphere with 5% CO2 in RPMI 1640 medium (25 mM HEPES, with L-glutamine, #FG1385, Biochrom, Berlin, Germany) supplemented with 10% (v/v) fetal calf serum (Sigma, Taufkirchen, Germany) and 0.1 mg/mL gentamicin (Life Technologies, Karlsruhe, Germany).”

[8] = test system: OVXF OVCAR-8; assay: as above; format: cell-based, human
Description: as §3, §4

[9] = target: T1, HDAC3/NCOR2 (Homo sapiens, UniProt O15379); assay: Fluorogenic HDAC deacetylase assay (BPS Bioscience); format: biochemical
T1 construct: purchased BPS Bioscience 50003

[10] = target: T2, HDAC4 (Homo sapiens, UniProt P56524); assay: as above; format: biochemical; conditions: read-out: % inhibition @ 10 uM
T2 construct: purchased BPS Bioscience 50004

[11] = target: T3, HDAC5 (Homo sapiens, UniProt Q9UQL6); assay: as above; format: biochemical
T3 construct: purchased BPS Bioscience 50005

[12] = target: T4, HDAC7 (Homo sapiens, UniProt Q8WUI4); assay: as above; format: biochemical
T4 construct: purchased BPS Bioscience 50007

[13] = target: T5, HDAC8 (Homo sapiens, UniProt Q9BY41); assay: as above; format: biochemical
T5 construct: purchased BPS Bioscience 50008

[14] = target: T6, HDAC11 (Homo sapiens, UniProt Q96DB2); assay: as above; format: biochemical; conditions: read-out: % inhibition @ 10 uM
T6 construct: purchased BPS Bioscience 50011

[15] = test system: cultures of 60 human tumors; assay: NCI60 human tumor culture screen, initial study with DMSO dissolution; format: cell-based; conditions: initially dissolved in DMSO
Description: as §1

[16] = Aqueous solubility in the NCI60 assay conditions; format: physicochemical
Description: as §2

[17] = test system: pulmonary arterial hypertension in a rat model; design: method as in earlier work; conditions: daily injections following monocrotaline; after 4 weeks of treatment; cited from earlier work
[18] = test system: CFA-affected animals; design: method as in PMID 20846436; conditions: cited from earlier work
[19] = LXFA NCI-H522, 1% FCS, study P495C
[20] = LXFA NCI-H522, 10% FCS, study P495A
[21] = LXFA NCI-H522, 10% FCS, study P495B
[22] = OVXF OVCAR-8, 1% FCS, study P495C
[23] = OVXF OVCAR-8, 10% FCS, study P495A
[24] = OVXF OVCAR-8, 10% FCS, study P495B

T4 sequence (Q8WUI4 518-952 limits assumed): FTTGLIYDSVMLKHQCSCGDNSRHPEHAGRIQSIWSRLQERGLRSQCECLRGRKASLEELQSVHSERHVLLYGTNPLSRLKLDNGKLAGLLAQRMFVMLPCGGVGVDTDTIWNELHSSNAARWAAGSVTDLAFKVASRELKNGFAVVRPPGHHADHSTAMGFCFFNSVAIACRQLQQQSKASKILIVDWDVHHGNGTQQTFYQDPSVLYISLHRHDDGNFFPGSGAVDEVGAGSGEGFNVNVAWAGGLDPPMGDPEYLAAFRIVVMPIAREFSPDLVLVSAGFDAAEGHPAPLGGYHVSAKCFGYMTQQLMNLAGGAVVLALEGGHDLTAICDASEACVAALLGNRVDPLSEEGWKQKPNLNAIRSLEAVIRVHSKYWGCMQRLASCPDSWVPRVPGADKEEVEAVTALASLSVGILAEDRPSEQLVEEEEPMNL
T5 sequence (Q9BY41 whole entry): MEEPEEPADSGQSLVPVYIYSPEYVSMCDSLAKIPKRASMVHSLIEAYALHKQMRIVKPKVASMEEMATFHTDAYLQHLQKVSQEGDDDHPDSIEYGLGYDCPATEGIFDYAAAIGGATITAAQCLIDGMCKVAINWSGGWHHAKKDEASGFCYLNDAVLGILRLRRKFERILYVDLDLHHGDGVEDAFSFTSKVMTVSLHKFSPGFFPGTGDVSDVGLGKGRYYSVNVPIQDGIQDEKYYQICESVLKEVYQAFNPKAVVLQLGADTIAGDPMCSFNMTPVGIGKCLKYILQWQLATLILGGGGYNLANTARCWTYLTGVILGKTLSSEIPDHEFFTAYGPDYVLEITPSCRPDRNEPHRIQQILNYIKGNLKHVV
T1 sequence (O15379 whole entry): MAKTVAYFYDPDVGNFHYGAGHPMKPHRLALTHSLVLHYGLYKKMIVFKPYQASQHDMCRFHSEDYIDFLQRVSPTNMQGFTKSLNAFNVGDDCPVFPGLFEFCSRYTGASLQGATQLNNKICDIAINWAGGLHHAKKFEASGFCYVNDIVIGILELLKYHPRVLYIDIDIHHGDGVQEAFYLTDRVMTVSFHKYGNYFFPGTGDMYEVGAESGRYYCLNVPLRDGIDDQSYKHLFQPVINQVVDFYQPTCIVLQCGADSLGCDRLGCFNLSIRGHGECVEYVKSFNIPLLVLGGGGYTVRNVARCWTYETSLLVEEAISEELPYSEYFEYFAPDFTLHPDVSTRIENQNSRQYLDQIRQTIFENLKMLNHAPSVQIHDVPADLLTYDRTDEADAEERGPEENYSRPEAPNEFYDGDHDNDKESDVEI
T1 sequence (Q9Y618 395-489 partner limits assumed): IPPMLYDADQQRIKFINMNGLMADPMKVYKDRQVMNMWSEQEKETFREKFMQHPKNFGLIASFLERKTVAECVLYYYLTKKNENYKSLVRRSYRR
T3 sequence (Q9UQL6 656-1122 limits assumed): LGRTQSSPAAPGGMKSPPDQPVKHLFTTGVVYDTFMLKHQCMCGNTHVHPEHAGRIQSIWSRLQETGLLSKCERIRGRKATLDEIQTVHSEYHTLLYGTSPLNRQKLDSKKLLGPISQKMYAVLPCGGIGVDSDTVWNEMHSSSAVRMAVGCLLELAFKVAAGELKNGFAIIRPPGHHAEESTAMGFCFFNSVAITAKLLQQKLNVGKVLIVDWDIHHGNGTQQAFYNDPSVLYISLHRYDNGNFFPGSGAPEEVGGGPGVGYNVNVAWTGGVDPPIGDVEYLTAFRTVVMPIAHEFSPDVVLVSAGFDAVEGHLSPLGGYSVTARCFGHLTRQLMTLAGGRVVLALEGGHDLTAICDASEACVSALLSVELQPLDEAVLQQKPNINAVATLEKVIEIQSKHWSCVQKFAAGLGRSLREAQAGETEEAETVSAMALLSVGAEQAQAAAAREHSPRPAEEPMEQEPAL
T6 sequence (Q96DB2 whole entry): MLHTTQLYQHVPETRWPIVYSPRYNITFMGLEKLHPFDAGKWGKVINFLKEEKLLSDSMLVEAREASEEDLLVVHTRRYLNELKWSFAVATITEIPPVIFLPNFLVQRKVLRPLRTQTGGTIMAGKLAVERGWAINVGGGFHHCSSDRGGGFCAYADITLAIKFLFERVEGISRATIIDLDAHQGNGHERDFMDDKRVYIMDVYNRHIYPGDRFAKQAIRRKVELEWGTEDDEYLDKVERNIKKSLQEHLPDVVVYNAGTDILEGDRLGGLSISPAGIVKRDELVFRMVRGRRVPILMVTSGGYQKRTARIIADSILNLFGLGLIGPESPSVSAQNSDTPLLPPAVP
T2 sequence (P56524 627-1084 limits assumed): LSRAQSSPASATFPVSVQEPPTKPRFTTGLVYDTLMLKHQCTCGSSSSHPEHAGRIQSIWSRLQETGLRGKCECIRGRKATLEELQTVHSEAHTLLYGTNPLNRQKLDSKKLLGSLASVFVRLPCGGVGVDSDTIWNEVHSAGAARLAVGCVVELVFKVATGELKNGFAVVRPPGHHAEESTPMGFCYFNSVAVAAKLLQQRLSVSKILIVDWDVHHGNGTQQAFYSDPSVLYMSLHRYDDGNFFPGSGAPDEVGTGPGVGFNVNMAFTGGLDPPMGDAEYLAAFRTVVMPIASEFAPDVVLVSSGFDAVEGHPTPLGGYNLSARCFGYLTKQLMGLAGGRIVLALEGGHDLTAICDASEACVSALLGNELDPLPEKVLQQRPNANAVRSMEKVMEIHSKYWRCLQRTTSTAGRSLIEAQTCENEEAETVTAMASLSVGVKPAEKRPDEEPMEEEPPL

In the case of CC(COc1ccccc1)N(CCCl)Cc1ccccc1 (stereo not shown) [PBZ, phenoxybenzamine], the “Percent cell growth in NCI60 screen with 5% FCS (48 hr incubation)” value [1] is reported as 73%, the “Percent cell growth in NCI60 screen with 5% FCS (48 hr incubation)” value [2] is reported as 53% and the “Percent cell growth in NCI60 screen with 5% FCS (48 hr incubation)” value [3] is reported as 63%. For the same molecule, the “Percent cell growth in NCI60 screen with 5% FCS (48 hr incubation)” value [4] was 60%, the “Percent cell growth in NCI60 screen with 5% FCS (48 hr incubation)” value [5] was 60% and the “Percent cell growth in NCI60 screen with 5% FCS (48 hr incubation)” value [6] was 76%. The “Percent cell growth in Oncotest screen with 10% FCS (72 hr incubation)” value ([7]; 10 μM phenoxybenzamine, NCI-H522) was 108%, the IC50 ([7]; Homo sapiens, LXFA NCI-H522 Non-small-cell lung, 1% FCS) was 51.5 µM and the “Test/Control (%) at Drug Concentration [uM] 1,0E+00” value (from here on “Test/Control (%) … [uM] 1,0E+00”) [7, 19] was 99%. The “Test/Control (%) at Drug Concentration [uM] 1,0E+01” value (“Test/Control (%) … [uM] 1,0E+01” for short) [7, 19] was 99%, the “Test/Control (%) at Drug Concentration [uM] 1,0E+02” value (“Test/Control (%) … [uM] 1,0E+02” for short) [7, 19] was 6% and the “Test/Control (%) at Drug Concentration [uM] 3,2E+00” value (“Test/Control (%) … [uM] 3,2E+00” for short) [7, 19] was 106%. The “Test/Control (%) at Drug Concentration [uM] 3,2E+01” value (“Test/Control (%) … [uM] 3,2E+01” for short) [7, 19] was 89%, the “Test/Control (%) … [uM] 1,0E+00” value [7, 20] was 99% and the “Test/Control (%) … [uM] 1,0E+01” value [7, 20] was 108%. The “Test/Control (%) … [uM] 1,0E+02” value [7, 20] was 14%, the “Test/Control (%) at Drug Concentration [uM] 1,0E-01” value (“Test/Control (%) … [uM] 1,0E-01” for short) [7, 20] was 96% and the “Test/Control (%) at Drug Concentration [uM] 1,0E-02” value (shortened to “Test/Control (%) … [uM] 1,0E-02”) [7, 20] was 81%. The “Test/Control (%) … [uM] 3,2E+00” value [7, 20] was 107%, the “Test/Control (%) … [uM] 3,2E+01” value [7, 20] was 110% and the “Test/Control (%) at Drug Concentration [uM] 3,2E-01” value [7, 20] was 98%. For the same molecule, the “Test/Control (%) at Drug Concentration [uM] 3,2E-02” value [7, 20] was 82%, the “Test/Control (%) at Drug Concentration [uM] 3,2E-03” value [7, 20] was 76% and the “Test/Control (%) … [uM] 1,0E+00” value [7, 21] was 100%. For the same molecule, the “Test/Control (%) … [uM] 1,0E+01” value [7, 21] was 93%, the “Test/Control (%) … [uM] 1,0E+02” value [7, 21] was 29% and the “Test/Control (%) … [uM] 1,0E-01” value [7, 21] was 100%. The “Test/Control (%) … [uM] 1,0E-02” value [7, 21] was 100%, the “Test/Control (%) at Drug Concentration [uM] 1,0E-03” value [7, 21] was 100% and the “Test/Control (%) … [uM] 3,2E+00” value [7, 21] was 100%. For the same molecule, the “Test/Control (%) … [uM] 3,2E+01” value [7, 21] was 97%, the “Percent cell growth in Oncotest screen with 10% FCS (72 hr incubation)” value ([8]; 10 μM phenoxybenzamine, OVCAR-8) was 90% and the IC50 ([8]; Homo sapiens, OVXF OVCAR-8 Ovarian, 1% FCS) was 31.9 µM. For the same molecule, the “Test/Control (%) … [uM] 1,0E+00” value [8, 22] was 102%, the “Test/Control (%) … [uM] 1,0E+01” value [8, 22] was 100% and the “Test/Control (%) … [uM] 1,0E+02” value [8, 22] was 22%. For the same molecule, the “Test/Control (%) … [uM] 3,2E+00” value [8, 22] was 104%, the “Test/Control (%) … [uM] 3,2E+01” value [8, 22] was 61% and the “Test/Control (%) … [uM] 1,0E+00” value [8, 23] was 84%. For the same molecule, the “Test/Control (%) … [uM] 1,0E+01” value [8, 23] was 90%, the “Test/Control (%) … [uM] 1,0E+02” value [8, 23] was 67% and the “Test/Control (%) … [uM] 1,0E-01” value [8, 23] was 85%. For the same molecule, the “Test/Control (%) … [uM] 1,0E-02” value [8, 23] was 90%, the “Test/Control (%) … [uM] 3,2E+00” value [8, 23] was 92% and the “Test/Control (%) … [uM] 3,2E+01” value [8, 23] was 96%. The “Test/Control (%) at Drug Concentration [uM] 3,2E-01” value [8, 23] was 86%, the “Test/Control (%) at Drug Concentration [uM] 3,2E-02” value [8, 23] was 86% and the “Test/Control (%) at Drug Concentration [uM] 3,2E-03” value [8, 23] was 84%. For the same molecule, the “Test/Control (%) … [uM] 1,0E+00” value [8, 24] was 89%, the “Test/Control (%) … [uM] 1,0E+01” value [8, 24] was 82% and the “Test/Control (%) … [uM] 1,0E+02” value [8, 24] was 32%. The “Test/Control (%) … [uM] 1,0E-01” value [8, 24] was 86%, the “Test/Control (%) … [uM] 1,0E-02” value [8, 24] was 90% and the “Test/Control (%) at Drug Concentration [uM] 1,0E-03” value [8, 24] was 92%. For the same molecule, the “Test/Control (%) … [uM] 3,2E+00” value [8, 24] was 84%, the “Test/Control (%) … [uM] 3,2E+01” value [8, 24] was 74% and the “% inhibition @ 10 uM” value ([9]; HDAC3/NCOR2, 10 µM) was about 30%. The inhibition at 10 µM ([9]; read-out: % inhibition @ 10 uM, HDAC3/NCOR2) was 31%, the inhibition at 10 µM [10] was 25% and the IC50 [11] was 9.8 µM. For the same molecule, the “% inhibition @ 10 uM” value ([12]; HDAC7, 10 µM) was about 30%, the inhibition at 10 µM ([12]; read-out: % inhibition @ 10 uM, HDAC7) was 34% and the “% inhibition @ 10 uM” value ([13]; HDAC8, 10 µM) was about 30%. For the same molecule, the inhibition at 10 µM ([13]; read-out: % inhibition @ 10 uM, HDAC8) was 34%, the inhibition at 10 µM [14] was 0% and the “biological effect in NCI60 screen” value [15] was “essentially no biological effect”. For the same molecule, the aqueous solubility [16] was “adequate aqueous solubility”, the “decrease in right-ventricular hypertrophy” value [17] was 69% and the “inhibition in the increase in medial thickening of pulmonary arteries” value [17] was 80%. The “reversing the heightened pain sensitivity of the CFA-affected animals” value [18] was “equipotent with the nonsteroidal anti-inflammatory drug, naproxen”.
